{"source": "patent US20240158350A1", "about": "“ESTER ANALOGS OF PSILOCIN, PROCESSES FOR THE PREPARATION THEREOF, AND METHODS OF USE” (Invyxis, Inc., priority 2022, published 2024)", "key": {"[1]": {"test": "Single-dose oral pharmacokinetics in C57BL6 mice (plasma and brain)", "format": "in vivo", "conditions": "for Cmax: read-out: Parent PK Cmax", "protocol": "The single-dose pharmacokinetics of test compounds were analyzed relative to control (psilocin) in C57BL6 mice via oral (PO) administration. Test compound was dissolved in DMSO and transferred to a 15-mL tube, followed by addition of Tween-80, PEG-400, and water to final volume. The resulting formulation (0.3 mg/mL compound, in DMSO (1%), Tween-80 (5%), and PEG-400 (25%) in water (69%)) was vortexed for 2 min. and mixed by inversion.\nMale C57BL6 mice (3× per compound, (at a weight ˜20g)) received a single dose (oral) of test compound at 3.0 mg/kg. Blood samples were collected pre-dose and at 0.083, 0.25, 0.5, 1, 2, 4, 8, 24-hour post-dose to yield approximately 20 μL of pooled plasma (3× mice) per time point. Brain tissues were collected at 2- and 8-hr post-dose. Brain was flushed with saline solution using a perfusion needle through the ascending aorta of the ventricle to remove any remaining blood prior to collection. Plasma and brain homogenate samples were stored at −80° C. prior to extraction for LC-MS/MS analysis.\nSamples were analyzed by LC-MS/MS to quantify the amounts of test compound and control (psilocin). The calculation of the pharmacokinetic (PK) parameters (AUCt, AUCinf, Cmax, Tmax, T1/2, and Kel) can be performed using a non-compartmental analysis (trapezoidal method)."}, "[2]": {"test": "Stability in fasted state simulated gastric fluid (FaSSGF)", "format": "in vitro ADME", "conditions": "37° C., 60 min vs T0", "protocol": "Fasted state simulated gastric fluid (FaSSGF). FaSSGF was prepared according to the manufacturer instructions (Biorelevant, UK). Test compounds (2 μL of 200 μM solution) were added to a 96-well plate containing 198 μL FaSSGF per well. The mixture was incubation in a thermomixer at 37° C. for 60 min. Sample aliquots were removed (40 μL, from T0 and 60 min.) and quenched with acetonitrile containing 0.5 μM glyburide (IS), and the supernatant collected by centrifugation (2500 rpm, 15 min.). LC-MS was performed using an Agilent MSD (electrospray in positive ionization) equipped with a Kinetic C18 reverse-column. The percent of test compound remaining was calculated using the ratio of the peak area of intact test compound at 60 min. over T0. The percent of psilocin release was calculated by comparing the peak area of psilocin at 60 min, (for test compound) vs. peak area at T0 (2 μM psilocin)."}, "[3]": {"biological_target": "human serotonin 5HT2A receptor (Homo sapiens, UniProt P28223)", "sequence (P28223 whole entry)": "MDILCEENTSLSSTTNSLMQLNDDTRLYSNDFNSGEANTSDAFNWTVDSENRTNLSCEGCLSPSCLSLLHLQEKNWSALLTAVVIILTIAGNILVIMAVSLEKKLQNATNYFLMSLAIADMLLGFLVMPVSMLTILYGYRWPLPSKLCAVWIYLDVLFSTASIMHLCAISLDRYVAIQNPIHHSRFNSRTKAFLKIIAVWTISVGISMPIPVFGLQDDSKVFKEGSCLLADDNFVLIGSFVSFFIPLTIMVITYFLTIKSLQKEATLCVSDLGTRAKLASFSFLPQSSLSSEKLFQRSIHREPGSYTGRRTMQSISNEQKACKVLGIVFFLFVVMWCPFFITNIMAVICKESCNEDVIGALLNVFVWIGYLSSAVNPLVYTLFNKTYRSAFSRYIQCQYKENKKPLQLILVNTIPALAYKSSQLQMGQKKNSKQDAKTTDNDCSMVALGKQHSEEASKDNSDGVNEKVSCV", "test": "5HT2A receptor radioligand displacement assay", "set-up": "key to the marks not given beside the values", "conditions": "displacement of [3H]-ketanserin or [3H]-LSD, HEK293 membranes"}, "[4]": {"test": "IP-One incubation stability (cell-treated stimulation medium, LC-MS)", "format": "in vitro ADME", "conditions": "2 μM, 60 min vs T0, 37° C., medium on CHO-K1 cells expressing 5-HT2A", "protocol": "IP-One incubation. CHO-K1 cells expressing recombinant Serotonin receptor 5-HT2A (Perkin Elmer, Waltham, MA), were seeded in 96-well plates (˜80,000 cells/well) and treated with 28 μL (per well) of stimulation medium (IP-One HTRF® kit) containing test compounds (2 μM) for 1 hr in a CO2 incubator (5%) at 37° C. The cell-treated medium from 3 wells were pooled together to provide 40 μL for LC-MS analysis. Aliquots for each compound were collected at time zero (T0, 100% intact test compound) and 60-min. The incubated medium (40 μL) was quenched with 120 μL of acetonitrile containing 0.5 μM glyburide (IS), and the supernatant was collected by centrifugation (2500 rpm, 15 min.). LC-MS was performed using an Agilent MSD (electrospray in positive ionization) equipped with a Kinetic C18 reverse-column. The percent of test compound remaining is calculated using the ratio of the peak areas of intact test compound at 60 min. over T0. The percent of psilocin release is calculated by comparing the peak area of psilocin at 60 min. (for test compound) vs. peak area at T0 (2 μM psilocin). Results are summarized in Table 1, (rel to % parent detected; and % psilocin detected at 1 hr)."}, "[5]": {"conditions": "male, C57BL6, mouse, parent compound in brain, 2 h post-dose, 3.0 mg/kg PO, read-out: Parent PK [brain] 2 h"}, "[6]": {"conditions": "male, C57BL6, mouse, parent compound in plasma, 3.0 mg/kg PO"}}, "note": "Like-named read-outs stand apart in the source and are kept apart here.", "data": [{"smiles": "CN(C)CCc1c[nH]c2cccc(O)c12", "note": "[Psilocin, 4-hydroxy-N,N-dimethyltryptamine]", "values": [{"measurement": "psilocin in the brain at 8-h post-dose", "setting": "[1]; 8-h post-dose", "result": "No psilocin in the brain was detected"}, {"measurement": "psilocin plasma concentration (estimate)", "setting": "[1]; estimate based on other pharmacokinetic data", "result": "~5", "unit": "ng/mL"}, {"measurement": "concentration at 2 h", "setting": "[1]; male, C57BL6, mouse, brain, oral, 3 mg/kg, 2-h post-dose, range over animals, read-out: Psilocin concentration in the brain", "result": "40 to 78", "unit": "ng/g"}, {"measurement": "Kp at 2 h", "setting": "[1]; male, C57BL6, mouse, brain, oral, 3 mg/kg, 2-h post-dose, with estimated plasma concentration of 5 ng/mL, read-out: mean brain/plasma (B/P) ratio", "result": "11.2 ± 4.3"}, {"measurement": "concentration at 2 h", "setting": "[1]; [5]", "result": 54, "unit": "ng/mL"}, {"measurement": "Cmax", "setting": "[1]; [6]", "result": "~5", "unit": "ng/mL"}, {"measurement": "% parent compound", "setting": "[2]", "result": 72.2, "unit": "%"}, {"measurement": "Activity relative to psilocin", "setting": "[3]", "result": "++"}, {"measurement": "% parent compound", "setting": "[4]", "result": 87.4, "unit": "%"}]}, {"smiles": "CN(C)CCc1c[nH]c2cccc(OC(=O)C(C)(C)C(=O)Oc3cccc4[nH]cc(CCN(C)C)c34)c12", "note": "[Test Compound A, bis(3-(2-(dimethylamino)ethyl)-1H-indol-4-yl) 2,2-dimethylmalonate]", "values": [{"measurement": "PK profile (absorption, elimination)", "setting": "[1]; 3.0 mg/kg PO, in words", "result": "quick absorption of the compound, but with a long elimination phase"}, {"measurement": "brain penetration of the parent compound", "setting": "[1]; 3.0 mg/kg PO, in words", "result": "delayed brain penetration of the parent compound"}, {"measurement": "concentration at 2 h", "setting": "[1]; [5]", "result": 0.5, "unit": "ng/mL"}, {"measurement": "AUC", "setting": "[1]; male, C57BL6, mouse, parent compound in plasma, 3.0 mg/kg PO, read-out: Parent PK AUC", "result": 39, "unit": "ng·h/mL"}, {"measurement": "Cmax", "setting": "[1]; [6]", "result": 4.2, "unit": "ng/mL"}, {"measurement": "Parent [brain] at 8 h", "setting": "[1]; parent compound in brain, 8 h post-dose (footnote)", "result": "**[brain] at 8 h is 6 ng/mL."}]}, {"smiles": "CN(C)CCc1c[nH]c2cccc(OC(=O)CCCC(=O)Oc3cccc4[nH]cc(CCN(C)C)c34)c12", "note": "[Test Compound B, bis(3-(2-(dimethylamino)ethyl)-1H-indol-4-yl) glutarate]", "values": [{"measurement": "PK profile (absorption, elimination)", "setting": "[1]; 3.0 mg/kg PO, in words", "result": "good PK profile as a psilocin prodrug"}, {"measurement": "parent compound detected in plasma or brain samples", "setting": "[1]; 3.0 mg/kg PO, in words", "result": "no parent compound was detected in any of the plasma or brain samples"}, {"measurement": "concentration at 2 h", "setting": "[1]; [5]", "result": 0, "unit": "ng/mL"}, {"measurement": "psilocin detected after administration of test compound", "setting": "[1]; plasma and brain, in words", "result": "psilocin was detected in quantifiable amounts"}]}, {"smiles": "CN(C)CCc1c[nH]c2cccc(OC(=O)CCC(=O)Oc3cccc4[nH]cc(CCN(C)C)c34)c12", "note": "[drawing 41]", "values": [{"measurement": "% parent compound", "setting": "[4]", "result": 61.7, "unit": "%"}]}, {"smiles": "CN(C)CCc1c[nH]c2cccc(OC(=O)c3ccc(Br)cc3)c12", "note": "[drawing 42]", "values": [{"measurement": "% parent compound", "setting": "[4]", "result": 9.1, "unit": "%"}]}, {"smiles": "CN(C)CCc1c[nH]c2cccc(OC(=O)C(C)(C)C(=O)Oc3cccc4[nH]cc(CCN(C)C)c34)c12", "note": "[drawing 43]", "values": [{"measurement": "% parent compound", "setting": "[4]", "result": 86.8, "unit": "%"}]}, {"smiles": "CN(C)CCc1c[nH]c2cccc(OC(=O)CCCC(=O)Oc3cccc4[nH]cc(CCN(C)C)c34)c12", "note": "[drawing 44]", "values": [{"measurement": "% parent compound", "setting": "[4]", "result": 71.5, "unit": "%"}]}, {"smiles": "CN(C)CCc1c[nH]c2cccc(OC(=O)c3cccc(C(=O)Oc4cccc5[nH]cc(CCN(C)C)c45)c3)c12", "note": "[drawing 45]", "values": [{"measurement": "% parent compound", "setting": "[4]", "result": 52.1, "unit": "%"}]}, {"smiles": "CN(C)CCc1c[nH]c2cccc(OC(=O)[C@H]3C[C@@H]3C(=O)Oc3cccc4[nH]cc(CCN(C)C)c34)c12", "note": "[drawing 46]", "values": [{"measurement": "% parent compound", "setting": "[4]", "result": 76.1, "unit": "%"}]}, {"smiles": "CN(C)CCc1c[nH]c2cccc(OC(=O)c3ccccc3F)c12", "note": "[drawing 47]", "values": [{"measurement": "% parent compound", "setting": "[4]", "result": 11.4, "unit": "%"}]}, {"smiles": "CN(C)CCc1c[nH]c2cccc(OC(=O)CCC(=O)Oc3cccc4[nH]cc(CCN(C)C)c34)c12", "note": "[drawing 49]", "values": [{"measurement": "% parent compound", "setting": "[2]", "result": 97.1, "unit": "%"}]}, {"smiles": "CN(C)CCc1c[nH]c2cccc(OC(=O)c3ccc(Br)cc3)c12", "note": "[drawing 50]", "values": [{"measurement": "% parent compound", "setting": "[2]", "result": 93.8, "unit": "%"}]}, {"smiles": "CN(C)CCc1c[nH]c2cccc(OC(=O)C(C)(C)C(=O)Oc3cccc4[nH]cc(CCN(C)C)c34)c12", "note": "[drawing 51]", "values": [{"measurement": "% parent compound", "setting": "[2]", "result": 94.7, "unit": "%"}]}, {"smiles": "CN(C)CCc1c[nH]c2cccc(OC(=O)CCCC(=O)Oc3cccc4[nH]cc(CCN(C)C)c34)c12", "note": "[drawing 52]", "values": [{"measurement": "% parent compound", "setting": "[2]", "result": 94.5, "unit": "%"}]}, {"smiles": "CN(C)CCc1c[nH]c2cccc(OC(=O)c3cccc(C(=O)Oc4cccc5[nH]cc(CCN(C)C)c45)c3)c12", "note": "[drawing 53]", "values": [{"measurement": "% parent compound", "setting": "[2]", "result": 93.5, "unit": "%"}]}, {"smiles": "CN(C)CCc1c[nH]c2cccc(OC(=O)[C@H]3C[C@@H]3C(=O)Oc3cccc4[nH]cc(CCN(C)C)c34)c12", "note": "[drawing 54]", "values": [{"measurement": "% parent compound", "setting": "[2]", "result": 95.5, "unit": "%"}]}, {"smiles": "CN(C)CCc1c[nH]c2cccc(OC(=O)c3ccccc3F)c12", "note": "[drawing 55]", "values": [{"measurement": "% parent compound", "setting": "[2]", "result": 97.5, "unit": "%"}]}, {"smiles": "CN(C)CCc1c[nH]c2cccc(OC(=O)CCC(=O)Oc3cccc4[nH]cc(CCN(C)C)c34)c12", "note": "[drawing 57]", "values": [{"measurement": "Activity relative to psilocin", "setting": "[3]", "result": "+++"}]}, {"smiles": "CN(C)CCc1c[nH]c2cccc(OC(=O)c3ccc(Br)cc3)c12", "note": "[drawing 58]", "values": [{"measurement": "Activity relative to psilocin", "setting": "[3]", "result": "++"}]}, {"smiles": "CN(C)CCc1c[nH]c2cccc(OC(=O)C(C)(C)C(=O)Oc3cccc4[nH]cc(CCN(C)C)c34)c12", "note": "[drawing 59]", "values": [{"measurement": "Activity relative to psilocin", "setting": "[3]", "result": "+++"}]}, {"smiles": "CN(C)CCc1c[nH]c2cccc(OC(=O)CCCC(=O)Oc3cccc4[nH]cc(CCN(C)C)c34)c12", "note": "[drawing 60]", "values": [{"measurement": "Activity relative to psilocin", "setting": "[3]", "result": "+++"}]}, {"smiles": "CN(C)CCc1c[nH]c2cccc(OC(=O)c3cccc(C(=O)Oc4cccc5[nH]cc(CCN(C)C)c45)c3)c12", "note": "[drawing 61]", "values": [{"measurement": "Activity relative to psilocin", "setting": "[3]", "result": "+++"}]}, {"smiles": "CN(C)CCc1c[nH]c2cccc(OC(=O)[C@H]3C[C@@H]3C(=O)Oc3cccc4[nH]cc(CCN(C)C)c34)c12", "note": "[drawing 62]", "values": [{"measurement": "Activity relative to psilocin", "setting": "[3]", "result": "+++"}]}, {"smiles": "CN(C)CCc1c[nH]c2cccc(OC(=O)c3ccccc3F)c12", "note": "[drawing 63]", "values": [{"measurement": "Activity relative to psilocin", "setting": "[3]", "result": "++"}]}]}
